In brackets after ≈: the same amount, converted by molar mass.
What was measured:
Format in all cases: physicochemical
[1] = Solubility in biological media (FaSSIF, FeSSIF), HPLC detection; settings: for solubility at 0.5 h / solubility at 2 h / solubility at 24 h / Solubility: 37° C.
Protocol: (§1) Add 20 mg of the sample (the compound shown by Formula (I) in the form of Crystal Form A) into a 10 ml conical tube, and then add 4 ml of water or biological medium (FeSSIF (pH 5.0) or FaSSIF (pH 6.5)), respectively. Shake the solution at 37° C. for 24 h in a constant temperature bath at 1000 rpm, and take samples at 0.5 h, 2 h and 24 h, respectively. Filter the samples through an aquo-system microporous filter membrane and discard the initial filtrate to obtain the test solution.
Perform an HPLC detection for the test solution ([…]), and calculate the sample concentration according to the standard curve method.
as §1, with “(II)” for “(I)”, “B)” for “A)”

[2] = Hygroscopicity by dynamic moisture absorber (DVS); settings: for Weight gain at 80% RH: DVS, 25° C.; for Hygroscopicity (definition criteria for hygroscopic weight gain): from weight gain at 80% RH
Protocol: The humidity change for each gradient within 0%~90% is 10%. Airflow: 200 ml/min; temperature: 25° C.; testing point: one testing point taken every 10% increase in humidity.
Take an appropriate amount of the test sample (the compound shown by Formula (I) in the form of Crystal Form A) to test its hygroscopicity with a dynamic moisture absorber.
Take an appropriate amount of the test sample (the compound shown by Formula (II) in the form of Crystal Form B) to test its hygroscopicity with a dynamic moisture absorber.

[3] = Solid-state stability under high temperature, high humidity, light exposure and acceleration conditions (HPLC purity, XRPD form); settings: for remaining at 168 h / remaining at 360 h: solid state
Excerpt: Sample on the 7th and 15th day to observe the color change of the samples. Analyze the sample purity and crystal form through HPLC and XPRD detection, respectively.
Sample on the 15th day to observe the color change of the sample. Analyze the sample purity and crystal form through HPLC and XPRD detection, respectively.

[4] = Acceleration 40° C./75% RH, 15d

O=C(N[C@@H](Cc1ccc(N2C(=O)C3(CC3)c3ccc(F)c(F)c32)cc1)C(=O)O)c1c(F)cccc1Cl [Crystal Form A, (S)-2-(2-chloro-6-fluorobenzoyl amido)-3-(4-(6′,7′-difluoro-2′-oxospiro [cyclopropane-1,3′-indoline]-1′-yl)phenyl) propionic acid]
solubility at 0.5 h ([1]; FaSSIF (pH 6.5), 0.5 h): 2130 µg/mL (≈ 4140 µM)
solubility at 2 h ([1]; FaSSIF (pH 6.5), 2 h): 2230 µg/mL (≈ 4330 µM)
solubility at 24 h ([1]; FaSSIF (pH 6.5), 24 h): 2220 µg/mL (≈ 4310 µM)
solubility at 0.5 h ([1]; FeSSIF (pH 5.0), 0.5 h): 460 µg/mL (≈ 893 µM)
solubility at 2 h ([1]; FeSSIF (pH 5.0), 2 h): 480 µg/mL (≈ 932 µM)
solubility at 24 h ([1]; FeSSIF (pH 5.0), 24 h): 490 µg/mL (≈ 952 µM)
Solubility in FeSSIF and FaSSIF (in words) [1]: good solubility
Solubility in FeSSIF and FaSSIF (in words) ([1]; listed as Crystal form A): relatively good
Weight gain at 80% RH [2]: 0.09%
Hygroscopicity (definition criteria for hygroscopic weight gain) [2]: no or almost no hygroscopicity
Change in purity and crystal form (in words) ([3]; 15 days at 60° C., 92.5% RH, 4500 lux and 40° C./75% RH): no significant changes
Crystal form (XRPD) ([3]; Acceleration 40° C./75% RH, 7d): Unchanged
Crystal form (XRPD) [3, 4]: Unchanged
Crystal form (XRPD) ([3]; High humidity 92.5% RH, 7d): Unchanged
Crystal form (XRPD) ([3]; High humidity 92.5% RH, 15d): Unchanged
Crystal form (XRPD) ([3]; High temperature 60° C., 7d): Unchanged
Crystal form (XRPD) ([3]; High temperature 60° C., 15d): Unchanged
Crystal form (XRPD) ([3]; Light exposure 4500 lux, 7d): Unchanged
Crystal form (XRPD) ([3]; Light exposure 4500 lux, 15d): Unchanged
remaining at 168 h ([3]; Acceleration 40° C./75% RH, 7d): 99.4%
remaining at 360 h [3, 4]: 99.4%
remaining at 168 h ([3]; High humidity 92.5% RH, 7d): 99.3%
remaining at 360 h ([3]; High humidity 92.5% RH, 15d): 99.3%
remaining at 168 h ([3]; High temperature 60° C., 7d): 99.4%
remaining at 360 h ([3]; High temperature 60° C., 15d): 99.4%
remaining at 168 h ([3]; Light exposure 4500 lux, 7d): 99.2%
remaining at 360 h ([3]; Light exposure 4500 lux, 15d): 99.2%

O=C(N[C@@H](Cc1ccc(N2C(=O)C3(CC3)c3ccc(F)c(F)c32)cc1)C(=O)O)c1c(F)cccc1Cl [Crystal Form B, (S)-2-(2-chloro-6-fluorobenzoyl amido)-3-(4-(6′,7′-difluoro-2′-oxospiro [cyclopropane-1,3′-indoline]-1′-yl)phenyl) propionic acid]
Solubility ([1]; FaSSIF (pH 6.5), 0.5 h): 3187 µg/mL (≈ 6190 µM)
Solubility ([1]; FaSSIF (pH 6.5), 2 h): 2961 µg/mL (≈ 5750 µM)
Solubility ([1]; FaSSIF (pH 6.5), 24 h): 2791 µg/mL (≈ 5420 µM)
Solubility ([1]; FeSSIF (pH 5.0), 0.5 h): 869 µg/mL (≈ 1690 µM)
Solubility ([1]; FeSSIF (pH 5.0), 2 h): 815 µg/mL (≈ 1580 µM)
Solubility ([1]; FeSSIF (pH 5.0), 24 h): 734 µg/mL (≈ 1430 µM)
Solubility in FeSSIF and FaSSIF (in words) [1]: relatively good
Weight gain at 80% RH [2]: 0.71%
Hygroscopicity (definition criteria for hygroscopic weight gain) [2]: slight hygroscopicity

From patent US20260285809A1, “CRYSTAL OF N-(BENZOYL)-PHENYLALANINE COMPOUND, AND PHARMACEUTICAL COMPOSITION THEREOF, AND PREPARATION METHOD THEREFOR AND USE THEREOF” (Hangzhou Apeloa Medicine Research Institute Co., Ltd., priority 2022, published 2026)
